1 molecule from US20200181212A1 (priority 2014, published 2020) can be followed below.

This data set can be described thus: physchem. The conditions noted are these: cells or culture medium.

Take `CC(C)C[C@@H]1NC(=O)[C@H](CO)NC(=O)[C@@H]2CSSC[C@@H]3NC(=O)[C@H]([C@@H](C)O)NC(=O)[C@H](C)NC(=O)[C@H](CC(=O)O)NC(=O)[C@H](CC(=O)O)NC(=O)[C@H](CSSC[C@H](NC(=O)[C@H](Cc4ccc(O)cc4)NC(=O)[C@@H](N)CCC(N)=O)C(=O)N[C@@H](C(C)C)C(=O)N4CCC[C@H]4C(=O)N[C@@H](C(C)C)C(=O)N[C@@H](CC(=O)O)C(=O)N[C@@H](CCC(N)=O)C(=O)N4CCC[C@H]4C(=O)N2)NC(=O)[C@H](CSSC[C@@H](C(=O)N[C@@H](CCCNC(=N)N)C(=O)N[C@@H](C)C(=O)O)NC(=O)[C@H](Cc2ccc(O)cc2)NC(=O)[C@H](Cc2ccc(O)cc2)NC(=O)[C@H](C(C)C)NC(=O)[C@H]([C@@H](C)O)NC(=O)[C@H](Cc2c[nH]cn2)NC(=O)CNC(=O)[C@H](CC(N)=O)NC(=O)[C@H](CCC(=O)O)NC(=O)[C@H](CC(N)=O)NC(=O)[C@H](CCCNC(=N)N)NC(=O)[C@H](CCC(=O)O)NC(=O)[C@H](CCC(N)=O)NC(=O)[C@H]([C@@H](C)O)NC3=O)NC(=O)[C@@H]2CCCN2C(=O)[C@H](CCC(N)=O)NC(=O)[C@H]([C@@H](C)O)NC(=O)[C@H](CC(N)=O)NC1=O` (single isomer, unassigned) [Peak 1]: the amount remaining at 24 h is 5.6%.
